Assay results taken from patent US20250186456A1, “PYRIMIDINE-FUSED CYCLIC COMPOUND AND PREPARATION METHOD AND USE THEREOF” (Genfleet Therapeutics (Shanghai) Inc., priority 2021, published 2025).
Read-outs that look alike come from different tables or passages of the source.

Experiments:
[1] = system: p-ERK in AGS cells (KRAS G12D mutation); test: Cell p-ERK assay (HTRF, Advance ERK phospho-T202/Y204 kit); type: cell-based, human; conditions: AGS cells, 3 hours incubation with compound, HTRF, read-out: AGS p-ERK IC50
Method: AGS was purchased from ATCC; catalog No: CRL-1739; F12K was purchased from Gibco; catalog No: 21127-022; FBS was purchased from Gibco; catalog No: 10099-141C; trypsin (containing EDTA) was purchased from Gibco, catalog No: 25200-072; DMSO was purchased from VWRAMRESCO; catalog No: 0231-500 ML; 96-well cell culture plates were purchased from Corning; catalog No: 3599; white opaque 96-well plates were purchased from Cisbio; catalog No: 66PL96025; Advance ERK phospho-T202/Y204 kit was purchased from Cisbio; catalog No: 64AERPEH; cell counters were purchased from CHEMOMETEC; model No: NC-200; microplate reader was purchased from PerkinElmer; model No: Envison.
AGS is an endogenous human gastric adenocarcinoma cell line containing the KRAS^G12D mutation, cultured in F12K+10% FBS medium. On the first day of the experiment, cells in the logarithmic growth phase were taken, digested with trypsin (containing EDTA), collected, and counted. Approximately 20000 cells/well were seeded in a 96-well cell culture plate and cultured overnight in an incubator with 5% CO2. 1000X stock solutions of compounds at a 3.16-fold concentration gradient were prepared using DMSO, and diluted 200-fold into a 5X compound stock solution using the medium described above. The 5X compound stock solution was added to each cell culturing well the day after cell seeding at a final concentration of 1X and a DMSO content of 0.1%. DMSO was used as a control in the experiment. After the compound was added and the incubation was kept for 3 hours, the medium in the culture wells was removed. 50 μl of Cell lysis solution (from Advance ERK phospho-T202/Y204 kit, the same below) was added to each well, mixed well, and incubated for 30 minutes and then 16 μl of the mixed solution was transferred to a white opaque 96-well plate, another 16 μl of cell lysis solution was added to a well as a blank well. After transferring, 4 μl of p-ERK HTRF antibody mixture (from Advance ERK phospho-T202/Y204 kit) was added to each well. After incubation for 4 hours, HTRF fluorescence value (RLU) was read by a microplate reader, and p-ERK level inhibition rate (IR (%)=(RLU control-RLU compound)/(RLU control-RLU blank)×100%) of the compounds was calculated. The concentration of the compounds and corresponding cell p-ERK level inhibition rate were fitted using Prism 8 four-parameters method, and the IC50 value was calculated.

AGS cells (KRAS G12D) = test: Cell proliferation inhibition assay, 3D, CellTiter-Glo 3D, AGS; type: cell-based, human; conditions: Homo sapiens, 120 h, AGS 3D sphere model, 5 days incubation
From the text: AsPC-1 was purchased from ATCC; catalog No: CRL-1682; AGS was purchased from ATCC; catalog No: CRL-1739; RPMI1640 was purchased from Gibco; catalog No: 11875-093 2235123; F12K was purchased from Gibco; catalog No: 21127-022; FBS was purchased from Gibco; catalog No: 10099-141C; trypsin (containing EDTA) was purchased from Gibco; catalog No: 25200-072; CellTiter Glo-3D was purchased from Progema; catalog No: G9683; 384-well sphere plates were purchased from Corning; catalog No: 3830; white opaque 384-well plates were purchased from Corning; catalog No: 3570; cell counters were purchased from CHEMOMETEC; model: NC-200; microplate reader was purchased from PerkinElmer; model: Envison;
AsPC-1 is an endogenous human pancreatic cancer cell containing KRAS^G12D mutation, cultured in RPMI-1640 medium containing 10% FBS; AGS is a human gastric cancer cell line containing KRAS^G12D, cultured in F-12K medium containing 10% FBS. Cells in the logarithmic growth phase were taken, digested with trypsin (containing EDTA), collected, and counted. 800 AsPC-1 cells/well or 400 AGS cells/well, respectively, were seeded in a 384-well sphere plate and cultured overnight at 5% CO2 to establish a 3D cell model. 1000X stock solutions of compounds at a 3.16-fold concentration gradient of were prepared using DMSO, diluted 100-fold into a 10X compound stock solution using the medium described above. The 10X compound stock solution was added to each cell on 2nd day after cell seeding at a final concentration of 1X and a DMSO content of 0.1%. DMSO was used as a control in the experiment, and the medium was used as blank. After the addition of the compounds, the cells were incubated for 5 days. 30 μl of CellTiter-Glo work solution was added to each well, mixed well, and incubated for 30 minutes. After standing at room temperature for 30 minutes, 40 μl of the mixed solution was transferred to an opaque 384-well plate with a white clear bottom. Luminescence chemiluminescence value was read by a microplate reader, and the cell proliferation inhibition rate (IR (%)=(RLU control-RLU compound)/(RLU control-RLU blank)×100%) was calculated. The gradiently diluted concentration of the compounds and corresponding cell proliferation inhibition rate were fitted using XLFit four-parameters method, and the IC50 value was calculated. […] The results of some exemplary compounds are shown in Table 2 (“−” represents untested).

IC50 [1] | SMILES | IC50 ([1]; Homo sapiens) | IC50 (AGS cells (KRAS G12D))
– | C#Cc1c(F)ccc2cccc(-c3nc4c5c(nc(OCC67CCCN6CC(=CF)C7)nc5c3F)N3C[C@H]5CC[C@H](N5)[C@H]3[C@@H](C)O4)c12 (stereo partly drawn) [Example Z630, (5R,5aS,6S,9R)-2-(8-ethynyl-7-fluoronaphthalen-1-yl)-1-fluoro-12-((2-(fluoromethylene)tetrahydro-1H-pyrrolizin-7a (5H)-yl)methoxy)-5-methyl-5a,6,7,8,9,10-hexahydro-5H-4-oxa-3,10a, 11, 13,14-pentaaza-6,9-methanonaphtho[1,8-ab]heptalene] | 729 nM | –
436 nM | CCc1cccc2cc(O)cc(-c3cc4nc(OC[C@@]56CCCN5C[C@H](F)C6)nc5c4c(c3Cl)OC[C@@H]3[C@@H]4CC[C@H](CN53)N4)c12 [Example Z381, 4-((5aS,6S,9R)-3-Chloro-13-(((2R,7aS)-2-Fluorotetrahydro-1H-Pyrrolizin-7a (5H)-Yl)Methoxy)-5a,6,7,8,9,10-Hexahydro-5H-6,9-Epiminoazepino[2′,1′: 3,4][1,4]Oxazepino[5,6,7-De]Quinazolin-2-Yl)-5-Ethylnaphthalen-2-Ol] | – | –
– | C#Cc1cccc2cc(N)cc(-c3nc4c5c(nc(OC)nc5c3F)N3C[C@H]5CC[C@H](N5)[C@H]3[C@H](C)O4)c12 [Example Z705, 5-ethynyl-4-((5S,5aS,6S,9R)-1-fluoro-12-methoxy-5-methyl-5a,6,7,8,9,10-hexahydro-5H-4-oxa-3,10a, 11,13,14-pentaaza-6,9-methanonaphtho[1,8-ab]heptalen-2-yl) naphthalen-2-amine] | 195 nM | –
– | C#Cc1c(F)ccc2cccc(-c3nc4c5c(nc(OC[C@]67CCCN6C[C@@H]6C[C@@H]67)nc5c3F)N3C[C@H]5CC[C@H](N5)[C@H]3[C@H](C)O4)c12 [Example Z626-1, (5S,5aS,6S,9R)-2-(8-ethynyl-7-fluoronaphthalen-1-yl)-1-fluoro-12-(((1aR,6aR,6bS)-hexahydrocyclopropa[a]pyrrolizin-6a (4H)-yl)methoxy)-5-methyl-5a,6,7,8,9,10-hexahydro-5H-4-oxa-3,10a, 11,13, 14-pentaaza-6,9-methanonaphtho[1,8-ab]heptalene] | 411 nM | 502 nM
– | C=C1CN2C[C@H](F)CC2(COc2nc3c4c(nc(-c5nc(N)cc(C)c5C5CC5)c(F)c4n2)O[C@@H](C)[C@@H]2[C@@H]4CC[C@H](CN32)N4)C1 (stereo partly drawn) [Example Z676, 5-cyclopropyl-6-((5S,5aS,6S,9R)-1-fluoro-12-(((2R)-2-fluoro-6-methylenetetrahydro-1H-pyrrolizin-7a (5H)-yl)methoxy)-5-methyl-5a,6,7,8,9,10-hexahydro-5H-4-oxa-3,10a, 11, 13, 14-pentaaza-6,9-methanonaphtho[1,8-ab]heptalen-2-yl)-4-methylpyridin-2-amine] | 70 nM | 267 nM
– | C#Cc1c(F)ccc2cccc(-c3nc4c5c(nc(OCC67CC(=C)CN6C[C@@H]6C[C@@H]67)nc5c3F)N3C[C@H]5CC[C@H](N5)[C@H]3[C@H](C)O4)c12 (stereo partly drawn) [Example Z605, (5S,5aS,6S,9R)-2-(8-ethynyl-7-fluoronaphthalen-1-yl)-1-fluoro-5-methyl-12-(((1aR,6bS)-5-methylenehexahydrocyclopropa[a]pyrrolizin-6a (4H)-yl)methoxy)-5a,6,7,8,9,10-hexahydro-5H-4-oxa-3,10a,11,13,14-pentaaza-6,9-methanonaphtho[1,8-ab]heptalene] | 554 nM | –
– | C#Cc1c(F)ccc2cccc(-c3nc4c5c(nc(OCC67CCCN6CC(=C)C7)nc5c3F)N3C[C@H]5CC[C@H](N5)[C@H]3CCO4)c12 (stereo partly drawn) [Example Z640, (6aR,7S, 10R)-2-(8-ethynyl-7-fluoronaphthalen-1-yl)-1-fluoro-13-((2-methylenetetrahydro-1H-pyrrolizin-7a (5H)-yl)methoxy)-5,6,6a,7,8,9,10,11-octahydro-4-oxa-3,11a, 12, 14, 15-pentaaza-7,10-methanocyclohepta[4,5]cycloocta[1,2,3-de]naphthalene] | 65.5 nM | –
– | C#Cc1c(F)ccc2cccc(-c3nc4c5c(nc(OCC67CC(F)CN6CCC7=C)nc5c3F)N3C[C@H]5CC[C@H](N5)[C@H]3[C@H](C)O4)c12 (stereo partly drawn) [Example Z609, (5S,5aS,6S,9R)-2-(8-ethynyl-7-fluoronaphthalen-1-yl)-1-fluoro-12-((6-fluoro-1-methylenetetrahydro-1H-pyrrolizin-7a (5H)-yl)methoxy)-5-methyl-5a,6,7,8,9,10-hexahydro-5H-4-oxa-3,10a,11,13,14-pentaaza-6,9-methanonaphtho[1,8-ab]heptalene] | 49.2 nM | –
– | C=C1CN2C[C@H](F)CC2(COc2nc3c4c(nc(-c5cc(N)nc(C)c5C5CC5)c(F)c4n2)O[C@@H](C)[C@@H]2[C@@H]4CC[C@H](CN32)N4)C1 (stereo partly drawn) [Example Z680, 5-Cyclopropyl-4-((58,5aS,6S,9R)-1-Fluoro-12-(((2R)-2-Fluoro-6-Methylenetetrahydro-1H-Pyrrolizin-7a (5H)-Yl)Methoxy)-5-Methyl-5a,6,7,8,9,10-Hexahydro-5H-4-Oxa-3,10a,11,13,14-Pentaaza-6,9-Methanonaphtho[1,8-Ab]Heptalen-2-Yl)-6-Methylpyridin-2-Amine] | 143 nM | 386 nM
– | CCc1cccc2cccc(-c3nc4c5c(nc(OC[C@@]67CCCN6C[C@H](F)C7)nc5c3F)N3C[C@H]5CC[C@H](N5)[C@H]3[C@H](CC)O4)c12 [Example Z592, (5S,5aS,6S,9R)-5-ethyl-2-(8-ethylnaphthalen-1-yl)-1-fluoro-12-(((2R,7aS)-2-fluorotetrahydro-1H-pyrrolizin-7a (5H)-yl)methoxy)-5a,6,7,8,9,10-hexahydro-5H-4-oxa-3,10a,11,13,14-pentaaza-6,9-methanonaphtho[1,8-ab]heptalene] | – | 354 nM
– | C#Cc1cccc2c(N)ccc(-c3nc4c5c(nc(OCC67CC(=C)CN6C[C@H](F)C7)nc5c3F)N3C[C@H]5CC[C@H](N5)[C@H]3[C@H](C)O4)c12 (stereo partly drawn) [Example Z686, 5-ethynyl-4-((5S,5aS,6S,9R)-1-fluoro-12-(((2R)-2-fluoro-6-methylenetetrahydro-1H-pyrrolizin-7a (5H)-yl)methoxy)-5-methyl-5a,6,7,8,9,10-hexahydro-5H-4-oxa-3,10a,11,13,14-pentaaza-6,9-methanonaphtho[1,8-ab]heptalen-2-yl) naphthalen-1-amine] | 447 nM | –
– | C=C1CN2C[C@H](F)CC2(COc2nc3c4c(nc(-c5cccc6cccc(C#N)c56)c(F)c4n2)O[C@@H](C)[C@@H]2[C@@H]4CC[C@H](CN32)N4)C1 (stereo partly drawn) [Example Z673, 8-((5S,5aS,6S,9R)-1-fluoro-12-(((2R)-2-fluoro-6-methylenetetrahydro-1H-pyrrolizin-7a (5H)-yl)methoxy)-5-methyl-5a,6,7,8,9,10-hexahydro-5H-4-oxa-3,10a,11,13,14-pentaaza-6,9-methanonaphtho[1,8-ab]heptalen-2-yl)-1-naphthonitrile] | 147 nM | –
